Source: the supplement of paper PMC13380429

Experiments:
Conditions in all cases: 72 h
[1] = system: Calu-3; assay: drug sensitivity score (DSS) for viability; higher = more toxic; extreme values may be limits of the assay
[2] = system: U2OS; assay: as above
[3] = system: Caco-2; assay: as above
[4] = system: HepG2; assay: as above
[5] = system: Vero E6; assay: as above
[6] = system: Calu-3; assay: relative viability EC50 (midpoint between 100% and the lowest measured viability); higher = less toxic
[7] = system: U2OS; assay: as above
[8] = system: Caco-2; assay: as above
[9] = system: HepG2; assay: as above
[10] = system: Vero E6; assay: as above
[11] = system: Calu-3; assay: cell viability relative to DMSO; higher = less toxic
[12] = system: U2OS; assay: as above
[13] = system: Caco-2; assay: as above
[14] = system: HepG2; assay: as above
[15] = system: Vero E6; assay: as above

| Compound | drug sensitivity score [1] | drug sensitivity score [2] | drug sensitivity score [3] | drug sensitivity score [4] | drug sensitivity score [5] | relative viability EC50 [6] | relative viability EC50 [7] | relative viability EC50 [8] | relative viability EC50 [9] | relative viability EC50 [10] | cell viability ([11]; 1 nM) | cell viability ([11]; 10 nM) | cell viability ([11]; 100 nM) | cell viability ([11]; 1000 nM) | cell viability ([11]; 10000 nM) | cell viability ([12]; 1 nM) | cell viability ([12]; 10 nM) | cell viability ([12]; 100 nM) | cell viability ([12]; 1000 nM) | cell viability ([12]; 10000 nM) | cell viability ([13]; 1 nM) | cell viability ([13]; 10 nM) | cell viability ([13]; 100 nM) | cell viability ([13]; 1000 nM) | cell viability ([13]; 10000 nM) | cell viability ([14]; 1 nM) | cell viability ([14]; 10 nM) | cell viability ([14]; 100 nM) | cell viability ([14]; 1000 nM) | cell viability ([14]; 10000 nM) | cell viability ([15]; 1 nM) | cell viability ([15]; 10 nM) | cell viability ([15]; 100 nM) | cell viability ([15]; 1000 nM) | cell viability ([15]; 10000 nM) |
| --- | --- | --- | --- | --- | --- | --- | --- | --- | --- | --- | --- | --- | --- | --- | --- | --- | --- | --- | --- | --- | --- | --- | --- | --- | --- | --- | --- | --- | --- | --- | --- | --- | --- | --- | --- |
| CN1[C@@H]2CC[C@H]1C[C@@H](OC(=O)c1cc(Cl)cc(Cl)c1)C2 [bemesetron] | 0 | 0 | 1 | 0 | 0 | > 10 µM | > 10 µM | > 10 µM | > 10 µM | > 10 µM | 86.5% | 87.7% | 94.5% | 94% | 95% | 98.7% | 96.7% | 101% | 98.7% | 99.7% | 104% | 97.8% | 103% | 94.9% | 82.2% | 98.7% | 101% | 91.3% | 107% | 106% | 98.2% | 103% | 95.8% | 99.5% | 104% |
| Cc1cccc(/C=C/c2ccccc2)n1 [SIB-1893] | 0 | 0 | 0 | 0 | 0 | > 10 µM | > 10 µM | > 10 µM | > 10 µM | > 10 µM | 100% | 102% | 99.2% | 98.1% | 102% | 99.8% | 106% | 96.3% | 103% | 97.4% | 88.7% | 101% | 90.7% | 100% | 96.9% | 108% | 96.1% | 107% | 102% | 94.2% | 94% | 104% | 102% | 103% | 100% |
| Cc1noc(NS(=O)(=O)c2ccc(N)cc2)c1C [sulfafurazole] | 0 | 0 | 0 | 0 | 0 | > 10 µM | > 10 µM | > 10 µM | > 10 µM | > 10 µM | 96.2% | 92.7% | 105% | 107% | 98.1% | 100% | 96.5% | 99.5% | 96% | 101% | 95.7% | 94.2% | 96.6% | 94% | 103% | 93% | 94.3% | 90.6% | 102% | 100% | 101% | 96.6% | 98.6% | 99.2% | 98.7% |
| CC(C)(C)c1cc(C(C)(C)C)c2c(c1)C(O)(C(F)(F)F)C(=O)O2 (racemic) [rac-BHFF] | 0 | 0 | 0 | 0 | 0 | > 10 µM | > 10 µM | > 10 µM | > 10 µM | > 10 µM | 95.9% | 93.4% | 94.8% | 93.2% | 106% | 100% | 96.8% | 103% | 99.1% | 108% | 94.3% | 91.8% | 87.4% | 93% | 94.6% | 92.4% | 105% | 98.2% | 104% | 91.8% | 99% | 103% | 99.3% | 103% | 99% |
| c1ccc2c(Cc3c[nH]c4ccccc34)c[nH]c2c1 [3,3'-diindolylmethane] | 0 | 0 | 0 | 1.1 | 0.1 | > 10 µM | > 10 µM | > 10 µM | > 10 µM | > 10 µM | 104% | 98.5% | 97.2% | 104% | 98.6% | 100% | 102% | 101% | 104% | 94.3% | 108% | 117% | 91.3% | 117% | 102% | 93.6% | 101% | 97% | 86.8% | 91.7% | 99% | 102% | 100% | 93.4% | 89.3% |
| c1ccc(OCc2ccc(CCCN3CCOCC3)cc2)cc1 [fomocaine] | 0 | 0 | 0 | 0 | 0 | > 10 µM | > 10 µM | > 10 µM | > 10 µM | > 10 µM | 110% | 101% | 108% | 96.3% | 113% | 93.7% | 94.6% | 98.5% | 100% | 101% | 87.8% | 92.8% | 100% | 93.4% | 97.1% | 96.7% | 106% | 97.1% | 101% | 90.4% | 94.9% | 95.7% | 93.1% | 100% | 100% |
| NC(=O)N1c2ccccc2C=Cc2ccccc21 [carbamazepine] | 0 | 0 | 0 | 0 | 0 | > 10 µM | > 10 µM | > 10 µM | > 10 µM | > 10 µM | 91.2% | 91.9% | 90.3% | 98.4% | 98.9% | 101% | 97.2% | 101% | 96.4% | 104% | 104% | 96.9% | 98.5% | 97.2% | 102% | 107% | 110% | 88.9% | 98.6% | 101% | 106% | 98.4% | 98.8% | 95.1% | 95.7% |
| C=C[C@@H]1C[C@]1(NC(=O)[C@@H]1C[C@@H]2CN1C(=O)[C@H](C(C)(C)C)NC(=O)O[C@@H]1C[C@H]1CCCCCc1nc3ccc(OC)cc3nc1O2)C(=O)NS(=O)(=O)C1CC1 [grazoprevir] | 0 | 0 | 1.2 | 0 | 0 | > 10 µM | > 10 µM | > 10 µM | > 10 µM | > 10 µM | 103% | 107% | 105% | 94.7% | 103% | 93% | 100% | 96% | 91.6% | 90.4% | 101% | 98.5% | 105% | 93.9% | 80.8% | 106% | 92.5% | 99.6% | 103% | 106% | 96.3% | 98.3% | 97.1% | 95.3% | 103% |
| CN1CC[C@@H](c2c(O)cc(O)c3c(=O)cc(-c4ccccc4Cl)oc23)[C@@H]1CO [P276-00] | 8.5 | 11.5 | 9.4 | 16.7 | 10.1 | 0.604 µM | 0.878 µM | 0.881 µM | 0.324 µM | 1.21 µM | 108% | 103% | 94.5% | 59% | 38.2% | 97.6% | 100% | 90.3% | 49.3% | 3% | 101% | 108% | 95.1% | 57.6% | 21.8% | 114% | 94.7% | 101% | 6.6% | 7.6% | 103% | 95.8% | 102% | 63.9% | 6.1% |
| Cc1ccc(NC(=O)c2cccc(N(C)C)c2)cc1NC(=O)c1ccc(O)cc1 | 0 | 0 | 0.8 | 0.8 | 0 | > 10 µM | > 10 µM | > 10 µM | > 10 µM | > 10 µM | 104% | 104% | 91.7% | 94.7% | 99% | 104% | 100% | 99.5% | 97% | 104% | 101% | 102% | 89% | 93.6% | 81.8% | 98.8% | 97.7% | 105% | 94.3% | 84.1% | 101% | 99.8% | 98.4% | 101% | 102% |
| CN(CCOc1ccc(-c2ccc3c(c2)OCO3)cc1C(C)(C)C)CC(=O)O | 0 | 0 | 0 | 0 | 0 | > 10 µM | > 10 µM | > 10 µM | > 10 µM | > 10 µM | 100% | 95.1% | 93.9% | 103% | 107% | 93.9% | 98.5% | 97.5% | 101% | 100% | 104% | 102% | 94.2% | 92.8% | 89.8% | 95.8% | 89.7% | 110% | 92.9% | 110% | 99.3% | 97.6% | 97.6% | 95.3% | 98.7% |
| c1ccc2c(c1)CCCc1cc(NCCN3CCOCC3)nnc1-2 | 0 | 0 | 0 | 0 | 0 | > 10 µM | > 10 µM | > 10 µM | > 10 µM | > 10 µM | 99.7% | 105% | 96.1% | 113% | 94.9% | 97.1% | 99.7% | 92.9% | 98.1% | 96.6% | 97.7% | 99.2% | 96.1% | 105% | 87.7% | 101% | 101% | 94.4% | 87.7% | 101% | 104% | 98.9% | 108% | 104% | 99% |
| COc1cc(F)c(C(C)C)cc1-c1ccc(C(F)(F)F)cc1CN1C(=O)O[C@H](c2cc(C(F)(F)F)cc(C(F)(F)F)c2)[C@@H]1C [anacetrapib] | 0 | 0 | 0 | 0 | 0 | > 10 µM | > 10 µM | > 10 µM | > 10 µM | > 10 µM | 97.7% | 97% | 108% | 93.6% | 102% | 96.6% | 100% | 101% | 99.8% | 97.7% | 98.1% | 90.8% | 100% | 96.1% | 93.8% | 108% | 103% | 98.2% | 92.6% | 98.8% | 108% | 107% | 97.6% | 102% | 93.2% |
